Data: patent US20220119354A1, “DIAMINO-SUBSTITUTED PYRIDINES AND PYRIMIDINES AS HERBICIDES” (FMC Corporation, priority 2019, published 2022)

How the values were obtained:
Format in all cases: in vivo
[1] = tested on: barnyardgrass (Echinochloa crus-galli); experiment: Test A postemergence, barnyardgrass; settings: 0 to 100 scale
Summary of the method: (§1)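 Using a solvent/surfactant formulation, test chemicals were sprayed onto freshly seeded soil or onto 2–10 cm seedlings at the one- to two-leaf stage. Visual injury ratings on a 0–100 scale were made about 10 d later in the greenhouse.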

[2] = tested on: kochia (Kochia scoparia); experiment: Test A postemergence, kochia; settings: 0 to 100 scale
Summary of the method: as §1

[3] = tested on: pigweed (Amaranthus retroflexus); experiment: Test A postemergence, pigweed; settings: 0 to 100 scale
Summary of the method: as §1

[4] = tested on: corn (Zea mays); experiment: Test A postemergence, corn; settings: 0 to 100 scale
Summary of the method: as §1

[5] = tested on: pigweed (Amaranthus retroflexus); experiment: Test A preemergence, pigweed; settings: 0 to 100 scale; for Pigweed plant response rating: 0 is no effect, 100 is complete control
Summary of the method: as §1

[6] = tested on: foxtail, giant (Setaria faberii); experiment: Test A preemergence, giant foxtail; settings: 0 to 100 scale; for Foxtail, Giant plant response rating: 0 is no effect, 100 is complete control
Summary of the method: as §1

[7] = tested on: blackgrass (Alopecurus myosuroides); experiment: Test A postemergence, blackgrass; settings: 0 to 100 scale
Summary of the method: as §1

[8] = tested on: ducksalad (Heteranthera limosa); experiment: Test B flooded paddy test, ducksalad; settings: Flood, 250 g ai/ha, applied to paddy water, 2-leaf stage, visual evaluation after 13 to 15 d
Summary of the method: (§2)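 Pots flooded to 3 cm above the soil when treated, with test compound added straight to the water and the flood maintained. Treated plants were at the 2-leaf stage and stayed 13–15 d in greenhouse. Response versus untreated controls scored visually from 0 (no effect) to 100 (complete control).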

[9] = tested on: barnyardgrass (Echinochloa crus-galli); experiment: Test A preemergence, barnyardgrass; settings: 0 to 100 scale; for Barnyardgrass plant response rating: 0 is no effect, 100 is complete control
Summary of the method: as §1

[10] = tested on: foxtail, giant (Setaria faberii); experiment: Test A postemergence, giant foxtail; settings: 0 to 100 scale
Summary of the method: as §1

[11] = tested on: rice (Oryza sativa); experiment: Test B flooded paddy test, rice; settings: Flood, 250 g ai/ha, applied to paddy water, 2-leaf stage, visual evaluation after 13 to 15 d
Summary of the method: as §2

[12] = tested on: ryegrass, Italian (Lolium multiflorum); experiment: Test A preemergence, Italian ryegrass; settings: 0 to 100 scale; for Ryegrass, Italian plant response rating: 0 is no effect, 100 is complete control
Summary of the method: as §1

[13] = tested on: kochia (Kochia scoparia); experiment: Test A preemergence, kochia; settings: 0 to 100 scale; for Kochia plant response rating: 0 is no effect, 100 is complete control
Summary of the method: as §1

[14] = tested on: sedge, umbrella (small-flower umbrella sedge, Cyperus difformis); experiment: Test B flooded paddy test, umbrella sedge; settings: Flood, 250 g ai/ha, applied to paddy water, 2-leaf stage, visual evaluation after 13 to 15 d
Summary of the method: as §2

[15] = tested on: ragweed (common ragweed, Ambrosia elatior); experiment: Test A preemergence, ragweed; settings: 0 to 100 scale; for Ragweed plant response rating: 0 is no effect, 100 is complete control
Summary of the method: as §1

[16] = tested on: barnyardgrass (Echinochloa crus-galli); experiment: Test B flooded paddy test, barnyardgrass; settings: Flood, 250 g ai/ha, applied to paddy water, 2-leaf stage, visual evaluation after 13 to 15 d
Summary of the method: as §2

[17] = tested on: galium (catchweed bedstraw, Galium aparine); experiment: Test A postemergence, galium; settings: 0 to 100 scale
Summary of the method: as §1

[18] = tested on: ragweed (common ragweed, Ambrosia elatior); experiment: Test A postemergence, ragweed; settings: 0 to 100 scale
Summary of the method: as §1

[19] = tested on: wheat (Triticum aestivum); experiment: Test A postemergence, wheat; settings: 0 to 100 scale
Summary of the method: as §1

[20] = tested on: ryegrass, Italian (Lolium multiflorum); experiment: Test A postemergence, Italian ryegrass; settings: 0 to 100 scale
Summary of the method: as §1

[21] = 125 g ai/ha, 0 no effect, 100 complete control
[22] = 500 g ai/ha, 0 no effect, 100 complete control

## CCC(Nc1ncc(C#N)c(N)n1)c1cc2ccccc2o1 (racemic) [Compound 20]
[1]; 125 g ai/ha
  Plant response rating, Barnyardgrass: 0
[1]; 500 g ai/ha
  Plant response rating, Barnyardgrass: 40
[2]; 125 g ai/ha
  Plant response rating, Kochia: 50
[2]; 500 g ai/ha
  Plant response rating, Kochia: 90
[3]; 125 g ai/ha
  Plant response rating, Pigweed: 60
[3]; 500 g ai/ha
  Plant response rating, Pigweed: 90
[4]; 125 g ai/ha
  Plant response rating, Corn: 0
[4]; 500 g ai/ha
  Plant response rating, Corn: 20
[5]; 125 g ai/ha
  Plant response rating, Pigweed: 50
[5]; 500 g ai/ha
  Plant response rating, Pigweed: 100
[6]; 125 g ai/ha
  Plant response rating, Foxtail, Giant: 0
[6]; 500 g ai/ha
  Plant response rating, Foxtail, Giant: 80
[7]; 125 g ai/ha
  Plant response rating, Blackgrass: 30
[7]; 500 g ai/ha
  Plant response rating, Blackgrass: 100
[8]
  Plant response rating, Ducksalad (0 to 100 scale, 0 is no effect, 100 is complete control): 0
[9]; 125 g ai/ha
  Plant response rating, Barnyardgrass: 40
[9]; 500 g ai/ha
  Plant response rating, Barnyardgrass: 50
[10]; 125 g ai/ha
  Plant response rating, Foxtail, Giant: 0
[10]; 500 g ai/ha
  Plant response rating, Foxtail, Giant: 10
[11]
  Plant response rating, Rice (0 to 100 scale, 0 is no effect, 100 is complete control): 0
[12]; 125 g ai/ha
  Plant response rating, Ryegrass, Italian: 30
[12]; 500 g ai/ha
  Plant response rating, Ryegrass, Italian: 90
[13]; 125 g ai/ha
  Plant response rating, Kochia: 0
[13]; 500 g ai/ha
  Plant response rating, Kochia: 30
[14]
  Plant response rating, Sedge, Umbrella (0 to 100 scale, 0 is no effect, 100 is complete control): 0
[15]; 125 g ai/ha
  Plant response rating, Ragweed: 40
[15]; 500 g ai/ha
  Plant response rating, Ragweed: 60
[16]
  Plant response rating, Barnyardgrass (0 to 100 scale, 0 is no effect, 100 is complete control): 0
[17]; 125 g ai/ha
  Plant response rating, Galium: 30
[17]; 500 g ai/ha
  Plant response rating, Galium: 80
[18]; 125 g ai/ha
  Plant response rating, Ragweed: 20
[18]; 500 g ai/ha
  Plant response rating, Ragweed: 70
[19]; 125 g ai/ha
  Plant response rating, Wheat: 0
[19]; 500 g ai/ha
  Plant response rating, Wheat: 10
[20]; 125 g ai/ha
  Plant response rating, Ryegrass, Italian: 0
[20]; 500 g ai/ha
  Plant response rating, Ryegrass, Italian: 0

## Cc1nc(NC(C)c2cc3ccccc3s2)nc(N)c1C(F)(F)F (stereo not drawn) [Compound 105]
[1]; [21]
  Plant response rating, Barnyardgrass: 30
[1]; [22]
  Plant response rating, Barnyardgrass: 60
[2]; [21]
  Plant response rating, Kochia: 80
[2]; [22]
  Plant response rating, Kochia: 100
[3]; [21]
  Plant response rating, Pigweed: 0
[3]; [22]
  Plant response rating, Pigweed: 60
[4]; [21]
  Plant response rating, Corn: 0
[4]; [22]
  Plant response rating, Corn: 0
[5]; 125 g ai/ha
  Pigweed plant response rating: 100
[5]; 500 g ai/ha
  Pigweed plant response rating: 100
[6]; 125 g ai/ha
  Foxtail, Giant plant response rating: 40
[6]; 500 g ai/ha
  Foxtail, Giant plant response rating: 100
[7]; [21]
  Plant response rating, Blackgrass: 0
[7]; [22]
  Plant response rating, Blackgrass: 0
[8]
  Plant response rating, Ducksalad (0 to 100 scale, 0 is no effect, 100 is complete control): 0
[9]; 125 g ai/ha
  Barnyardgrass plant response rating: 40
[9]; 500 g ai/ha
  Barnyardgrass plant response rating: 60
[10]; [21]
  Plant response rating, Foxtail, Giant: 0
[10]; [22]
  Plant response rating, Foxtail, Giant: 60
[11]
  Plant response rating, Rice (0 to 100 scale, 0 is no effect, 100 is complete control): 0
[12]; 125 g ai/ha
  Ryegrass, Italian plant response rating: 20
[12]; 500 g ai/ha
  Ryegrass, Italian plant response rating: 90
[13]; 125 g ai/ha
  Kochia plant response rating: 90
[13]; 500 g ai/ha
  Kochia plant response rating: 100
[14]
  Plant response rating, Sedge, Umbrella (0 to 100 scale, 0 is no effect, 100 is complete control): 0
[15]; 125 g ai/ha
  Ragweed plant response rating: 100
[15]; 500 g ai/ha
  Ragweed plant response rating: 100
[16]
  Plant response rating, Barnyardgrass (0 to 100 scale, 0 is no effect, 100 is complete control): 0
[17]; [21]
  Plant response rating, Galium: 90
[17]; [22]
  Plant response rating, Galium: 90
[18]; [21]
  Plant response rating, Ragweed: 70
[18]; [22]
  Plant response rating, Ragweed: 100
[19]; [21]
  Plant response rating, Wheat: 0
[19]; [22]
  Plant response rating, Wheat: 0
[20]; [21]
  Plant response rating, Ryegrass, Italian: 100
[20]; [22]
  Plant response rating, Ryegrass, Italian: 100
